Active and inactive are the calls of the source. No cut-off for these calls is given here.
Tests used:
[1] = molecular target: Acetylcholinesterase (Electrophorus electricus) (UniProt O42275); assay: (§1) Inhibition of Electrophorus electricus acetylcholinesterase by rapid colorimetric determination
Acetylcholinesterase = Acetylcholinesterase (Electrophorus electricus, UniProt O42275); assay: as §1
Chain of Acetylcholinesterase (O42275 whole entry): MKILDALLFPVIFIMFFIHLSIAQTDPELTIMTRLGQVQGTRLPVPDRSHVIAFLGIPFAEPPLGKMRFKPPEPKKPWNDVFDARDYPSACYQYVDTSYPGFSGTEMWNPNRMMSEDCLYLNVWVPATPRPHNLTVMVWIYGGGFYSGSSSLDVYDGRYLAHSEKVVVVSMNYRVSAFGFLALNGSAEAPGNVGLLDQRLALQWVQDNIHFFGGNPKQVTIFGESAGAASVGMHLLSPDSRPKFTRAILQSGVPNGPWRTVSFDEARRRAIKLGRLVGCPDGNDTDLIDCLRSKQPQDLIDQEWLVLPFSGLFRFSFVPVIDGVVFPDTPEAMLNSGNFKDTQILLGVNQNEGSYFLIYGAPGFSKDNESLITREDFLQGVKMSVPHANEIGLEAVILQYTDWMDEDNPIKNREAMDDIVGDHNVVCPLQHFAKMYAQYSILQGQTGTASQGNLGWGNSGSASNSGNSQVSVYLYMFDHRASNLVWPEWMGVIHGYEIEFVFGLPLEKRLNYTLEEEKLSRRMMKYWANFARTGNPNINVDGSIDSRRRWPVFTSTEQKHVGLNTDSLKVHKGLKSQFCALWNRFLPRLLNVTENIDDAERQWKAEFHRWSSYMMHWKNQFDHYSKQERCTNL

Chain of Acetylcholinesterase (Electrophorus electricus) (O42275 24-633 limits assumed): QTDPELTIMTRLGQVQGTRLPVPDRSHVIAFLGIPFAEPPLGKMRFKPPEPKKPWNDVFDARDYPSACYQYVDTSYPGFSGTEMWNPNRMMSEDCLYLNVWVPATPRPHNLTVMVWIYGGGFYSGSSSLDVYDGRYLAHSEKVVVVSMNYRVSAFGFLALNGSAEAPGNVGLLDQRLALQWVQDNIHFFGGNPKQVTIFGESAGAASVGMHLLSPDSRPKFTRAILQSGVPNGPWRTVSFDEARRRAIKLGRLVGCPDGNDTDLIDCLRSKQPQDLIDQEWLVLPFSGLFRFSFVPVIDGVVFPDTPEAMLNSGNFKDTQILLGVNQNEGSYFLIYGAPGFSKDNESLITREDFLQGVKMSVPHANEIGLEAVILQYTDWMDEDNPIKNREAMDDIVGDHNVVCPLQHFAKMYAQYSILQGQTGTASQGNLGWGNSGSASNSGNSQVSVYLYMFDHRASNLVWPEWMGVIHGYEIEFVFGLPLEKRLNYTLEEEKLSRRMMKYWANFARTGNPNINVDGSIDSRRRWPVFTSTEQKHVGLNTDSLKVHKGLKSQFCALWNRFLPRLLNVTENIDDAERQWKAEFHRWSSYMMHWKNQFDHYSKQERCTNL

Row | Structure (SMILES) | Activity [1] | IC50 (Acetylcholinesterase)
1 | CC(=O)N1CCC[C@H]2[C@@H](C[C@H]3CC[C@]4(O)[C@@H]5C[C@@H]6[C@@H](C[C@@H](C)C[C@@H]6N(C)C5)C[C@H]4N3)C[C@H](C)C[C@H]21 | inactive | 
2 | C[C@@H]1C[C@@H]2C[C@H]3N[C@H](C[C@H]4C[C@@H](C)C[C@@H]5[C@@H]4CCCN5C=O)CC[C@@H]3[C@H]3C[C@H]2[C@@H](C1)N(C)C3 [SERRATEZOMINE D] |  | 600 µM
3 | CC(=O)N1CCC[C@@H]2[C@@H](C[C@H]3CC[C@@H]4[C@H]5C[C@@H]6[C@@H](C[C@@H](C)C[C@@H]6N(C)C5)C[C@H]4N3)C[C@H](C)C[C@@H]21 | inactive | 
4 | CC(=O)N1CCC[C@H]2[C@@H](C[C@@H]3CC[C@@H]4[C@@H]5C[C@@H]6[C@@H](C[C@@H](C)C[C@@H]6N(C)C5)C[C@H]4N3)C[C@H](C)C[C@H]21 | inactive | 

From ChEMBL document CHEMBL1136944, “Serratezomines D and E, new Lycopodium alkaloids from Lycopodium serratum var. serratum” (Bioorg Med Chem Lett, 2009)
